# Measured values from patent US6921824B1, “Ruthenium dimeric complexes suitable as antimetastatic and antineoplastic agents” (priority 1999, dated 2005).
# Experiment: Solubility in water (remark in preparation)
# Type: physicochemical
substance,measurement,value
[K]2[trans-RuCl4(Me2SO)]2(μ-pyz) [Example 6],Solubility in water,not very soluble in water
